How the values were obtained:
[1] = tested on: Staphylococcus aureus RN4220 GFP biofilm; assay: Examples 4 and 5: log reduction of Staphylococcus aureus biofilm after bacterial pretreatment followed by benzalkonium chloride; type: cell-based; conditions: Example 5; treatment with C14 benzalkonium chloride after pretreatment with the named strain(s)
Protocol: The target biofilms of Staphylococcus aureus RN4220 GFP cultivated in microplates and bacilli cultures used are obtained according to the method previously described for Bacillus thuringiensis 407.
(§1) On a microplate containing 24-hour biofilms of Staphylococcus aureus RN4220 GFP having a thickness greater than 30 μm, one carefully removes 250 μL of supernatant from each well. 250 μL of culture medium (control) or suspension of: • Bt • BtΔfla • Bl • or Bt+Bl at equal concentrations, calibrated at 10^8 cells/mL are then added to each well.
The Staphylococcus aureus biofilms in the presence or not of bacteria are then incubated at 37° C. for 4 hours to allow infiltration of swimming bacteria. The supernatants are eliminated prior to placement into contact with the biocide.
These target biofilms are then treated by adding to the wells 200 μL of C14 benzalkonium chloride (BAC, Fluka, Buchs, Switzerland) at a concentration of 750 ppm, or 200 μl of […] sodium chloride (NaCl) (“non-treated” biofilm. […]
The surviving S. aureus are counted on TSA agar after serialized dilutions in 150-mM NaCI and incubation for 24 hours at 37° C.
The log 10 reductions of the S. aureus bacteria are calculated by comparing the relationship of the surviving ones in the disinfected biofilms to the population of non-treated biofilms. […]

[2] = tested on: Staphylococcus aureus RN4220 GFP biofilm; assay: Example 2: Staphylococcus aureus biofilm treated with lysostaphin with or without pretreatment by swimming Bacillus thuringiensis 407, residual biovolume; type: cell-based
Protocol: The strains of bacteria used for these experiments correspond to strains of Staphylococcus aureus RN4220 GFP and Bacillus thuringiensis 407 described in Table I.
The target biofilms of Staphylococcus aureus RN4220 GFP cultivated in microplates and the Bacillus thuringiensis 407 cultures used are obtained according to the method described previously.
as §1, with “of more” for “greater”, “of Bacillus thuringiensis 407” for “of: • Bt • BtΔfla • Bl • or Bt+Bl at equal concentrations,”, “into” for “to”
The Staphylococcus aureus biofilms in the presence or not of swimming bacteria are then incubated at 37° C. for 4 hours.
These target biofilms, sensitized or not for 4 hours by a cocktail of swimming bacteria, are then treated by adding into the wells 250 μL of lysostaphin in a concentration range of 0 to 0.5 μg/ml.
The same experimental device as the one described in the first experiment was used to quantify the effectiveness of treatment (comparison between the residual biovolume of the target biofilm during activity of the lysostaphin with or without pretreatment and a cocktail of swimming bacteria).

Substance	Log reduction (+/−0.2) [1]	eradication of the target biofilm by the antimicrobial compound alone ([2]; lysostaphin concentration <0.5 μg/ml, without pretreatment)	effectiveness on the target biofilm after pretreatment with a cocktail of swimming bacteria ([2]; pretreatment Bacillus thuringiensis 407 10^8 cells/mL 4 hours, lysostaphin 0 to 0.5 μg/ml, P<0.05)
C14 benzalkonium chloride	−0.9 log	–	–
lysostaphin	–	does not allow eradication	improved

— patent US20140065122A1, “Method for Removing a Microorganism Biofilm” (priority 2010, published 2014)
